Test results from patent US20150315211A1, “SMALL MOLECULES FOR THE MODULATION OF MCL-1 AND METHODS OF MODULATING CELL DEATH, CELL DIVISION, CELL DIFFERENTIATION AND METHODS OF TREATING DISORDERS” (priority 2010, published 2015).

What was measured:
BCL-XLΔC = BCL-XLΔC (Homo sapiens, UniProt Q07817); test: High-throughput competitive FP binding screen, FITC-BAD BH3/BCL-XLΔC interaction; settings: FITC-BAD BH3/BCL-XLΔC interaction pair, competitive FP screen
MCL-1ΔNΔC [1] = test: High-throughput competitive FP binding screen, FITC-MCL-1 SAHB/MCL-1ΔNΔC interaction; settings: selectivity for MCL-1ΔNΔC over BCL-XLΔC targeting (BCL-XL % Bound minus MCL-1 % Bound)
MCL-1ΔNΔC [2] = target: MCL-1ΔNΔC (Homo sapiens, UniProt Q07820); test: as above; parameters: the C-terminal alpha-helix was deleted from each of these constructs; GST (N, cleaved yes); made in house; settings: FITC-MCL-1 SAHB/MCL-1ΔNΔC interaction pair, competitive FP screen
Sequence of MCL-1ΔNΔC (Homo sapiens, UniProt Q07820) (Q07820 172-320 limits assumed, stated change not applied): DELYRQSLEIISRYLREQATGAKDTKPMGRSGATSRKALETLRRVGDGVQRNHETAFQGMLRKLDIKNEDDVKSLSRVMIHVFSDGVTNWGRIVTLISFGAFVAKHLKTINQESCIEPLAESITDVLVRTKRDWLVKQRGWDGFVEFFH

Sequence of BCL-XLΔC (Q07817 1-212 limits assumed, stated change not applied): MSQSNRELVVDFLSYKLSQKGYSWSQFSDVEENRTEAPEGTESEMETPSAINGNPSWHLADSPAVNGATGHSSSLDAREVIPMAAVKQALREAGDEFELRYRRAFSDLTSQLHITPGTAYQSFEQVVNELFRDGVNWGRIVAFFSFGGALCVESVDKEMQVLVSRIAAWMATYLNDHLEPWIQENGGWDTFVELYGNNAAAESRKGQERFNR

SMILES | BCL-XL % Bound (BCL-XLΔC) [%] | Spec Values (MCL-1ΔNΔC [1]) | MCL-1% Bound (MCL-1ΔNΔC [2]) [%]
O=S(=O)(Nc1ccc(O)c2ccccc12)c1ccccc1 | 96.39 | 76.72 | 19.67
CCOC(=O)C1=C(NC(=O)c2ccccc2)S/C(=C\c2ccc(C)o2)C1=O | 101.2 | 58.06 | 43.16
CCOC(=O)c1ccc(-c2ccc(/C=C3\S/C(=N\N=C4/C(=O)Nc5ccccc54)NC3=O)o2)cc1 | 66.63 | 53.34 | 13.28
O=C1N/C(=N/c2ccccc2)S/C1=C/C=C/c1ccco1 | 97.59 | 48.63 | 48.95
O=C1N/C(=N\c2ccc(F)cc2)S/C1=C/c1ccc(N2CCCCCC2)o1 | 87.8 | 47.38 | 40.42
CCOc1ccc(NC(=O)CC2C(=O)N(Cc3ccco3)C(=S)N2CCNC(C)=O)cc1 (stereo not drawn) | 102.4 | 82.72 | 19.69
CN(C)/C=C1\SC(=S)N(c2ccc(Br)cc2)C1=O | 112.3 | 79.08 | 33.27
CC(C)C(C(=O)O)N1C(=O)/C(=C/C=C/c2ccco2)SC1=S (stereo not drawn) | 102.8 | 76.69 | 26.08
O=C(NN1C(=O)S/C(=C/C=C/c2ccco2)C1=O)c1ccccc1O | 95.8 | 76.1 | 19.8
O=C(O)C(Cc1ccccc1)N1C(=O)/C(=C\c2ccco2)SC1=S (stereo not drawn) | 90.21 | 68.92 | 21.29
O=C1/C(=C\C=C\c2ccco2)SC(=S)N1NS(=O)(=O)c1ccccc1 | 89.9 | 66.9 | 23.0
CCCN1C(=O)/C(=C/c2ccc(-c3cccc(C(F)(F)F)c3)o2)NC1=S | 85.65 | 57.72 | 27.93
O=C1NC(=S)C(=C2CCCC2)S1 | 93.34 | 55.3 | 38.05
O=C(CCN1C(=O)/C(=C\C=C\c2ccco2)SC1=S)Nc1ccc(C(=O)O)c(O)c1 | 76.09 | 54.54 | 21.54
O=C(O)CC1NC(=S)N(Cc2ccccc2)C1=O (stereo not drawn) | 98.89 | 50.19 | 48.71
Cc1nn2c(S)nnc2nc1O | 102.7 | 168.5 | −65.83

SMILES | BCL-XL % Bound (BCL-XLΔC) [%] | Spec Values (MCL-1ΔNΔC [1]) | MCL-1% Bound (MCL-1ΔNΔC [2]) [%]
CCN(CC)c1ccc2cc(C(N)=O)/c(=N\NC(=O)c3ccccc3)oc2c1 | 129.3 | 135.9 | −6.592
COc1ccc(C(=O)COC(=O)c2c3c(nc4ccccc24)CCN(C)C3)cc1 | 88.79 | 119.7 | −30.96
CC1(C)CC2CC(C)(CN2c2nc(N)c3c(N)nc4c(c3c2C#N)CC(=O)N4C2CCCC2)C1 (stereo not drawn) | 114.7 | 104 | 10.72
CCOc1ccc(S(=O)(=O)/N=C2/C=C(Sc3nc[nH]n3)C(=O)c3ccccc32)cc1 | 103.4 | 101.1 | 2.333
O=C1NC(=S)N/C1=C1/C(=O)Nc2ccccc21 | 112.9 | 98.82 | 14.04
COc1cc(OC)c(C2=NOC(C(=O)Nc3cc(C)n(CC(=O)NCc4ccco4)n3)C2)cc1Cl (stereo not drawn) | 83.62 | 98.12 | −14.5
Cc1ccc(C2=NC(=O)/C(=C/c3cc(O)c(O)c(Br)c3)S2)cc1 | 96.59 | 93.98 | 2.607
O=C1C(Sc2nc[nH]n2)=C/C(=N/S(=O)(=O)c2ccc(F)cc2)c2ccccc21 | 96.12 | 91.16 | 4.952
NC(=O)c1c(Nc2nc3c(F)cccc3s2)sc2c1CCCC2 | 103.9 | 89.1 | 14.83
C/N=c1\scc(-c2c[nH]c3ccccc23)n1C | 114.1 | 83.96 | 30.17
Cc1ccc(NC(=O)COc2ncnc3c2cnn3-c2ccccc2)cc1 | 99.91 | 83.71 | 16.2
Cc1occc1-c1nnc2n1N=C(c1ccc(-c3cc(Cl)ccc3Cl)o1)CS2 | 104 | 81.03 | 22.98
Cc1ccc(C)n1-c1cc(Cl)ccc1C(=O)O | 75.93 | 79.84 | −3.914
O=C1CSCC(=O)N1c1csc(C(F)(F)F)c1-c1ccccc1 | 96.35 | 74.8 | 21.55
CN1c2ccccc2C(C)(C)C12C=Cc1cc(O)ccc1O2 (stereo not drawn) | 111 | 73.1 | 37.92

The remaining lines, values ahead:

BCL-XL % Bound (BCL-XLΔC) [%] | Spec Values (MCL-1ΔNΔC [1]) | MCL-1% Bound (MCL-1ΔNΔC [2]) [%] | SMILES
103.4 | 101.1 | 2.333 | CCOc1ccc(S(=O)(=O)NC2C=C(Sc3nc[nH]n3)C(=O)c3ccccc32)cc1 (stereo not drawn)
96.12 | 91.16 | 4.952 | O=C1C(Sc2nc[nH]n2)=CC(NS(=O)(=O)c2ccc(F)cc2)c2ccccc21 (stereo not drawn)
93.16 | 73.41 | 19.75 | O=C1C(Sc2nc[nH]n2)=C/C(=N/S(=O)(=O)c2cccs2)c2ccccc21
263.7 | 48.14 | 215.6 | COc1ccc(/C=c2\s/c(=C\C(=O)c3ccco3)[nH]c2=O)cc1O
107.9 | 69.33 | 38.57 | O=C1NC(=S)S/C1=C\c1ccc(-c2ccc(S(=O)(=O)N3CCOCC3)cc2)o1
92.22 | 62.76 | 29.45 | CN(C)c1ccc(/C=C2\SC(=O)N(CCC(=O)Nc3ccccc3)C2=O)cc1
94.16 | 51.57 | 42.59 | O=C1NC(=O)/C(=C\c2cccc(C(F)(F)F)c2)S1
91.73 | 51.9 | 39.84 | CCN1C(=O)C2Cc3cc(OC)c(OC)cc3CN2C1=O (stereo not drawn)
105.9 | 47.35 | 58.51 | CC(C)CN1C(=O)/C(=C\c2ccc(-c3ccc(S(N)(=O)=O)cc3)o2)SC1=S
101.7 | 124.8 | −23.1 | CC(C)/N=c1\scc(-c2cccs2)n1/N=C/c1ccc(O)c(O)c1O
89.95 | 106.2 | −16.27 | Cc1cs/c(=N\C2CCCCC2)n1/N=C/c1ccc(O)c(O)c1O
106.7 | 108.5 | −1.786 | Cc1cc2nc(N3CCC(C)CC3)c3ccccc3n2n1
96.57 | 108.1 | −11.56 | CC(C)(C)c1cc(Cc2ccc(O)c(O)c2)cc(C(C)(C)C)c1O
115.2 | 105.7 | 9.463 | Oc1c(C(c2cccs2)N2CCCCC2)ccc2cccnc12 (stereo not drawn)
87.36 | 98.23 | −10.87 | Oc1ccc(/C=N/NC(=S)Nc2ccc(Cl)cc2Cl)c(O)c1O
78.1 | 96.6 | −18.5 | CCOC(=O)/C(C#N)=C\c1ccc(N2CCOCC2)cc1
101.3 | 86.7 | 14.6 | O=C(c1ccccc1)c1ccc2nc(-c3ccco3)c(-c3ccco3)nc2c1
71.1 | 84.11 | −13.01 | CC(C)(C)c1cc(O)c2oc(=O)c(-c3nc(-c4ccccc4F)no3)cc2c1
103.4 | 82.7 | 20.72 | O=S(=O)(Nc1ccc(Oc2ccc(Cl)cc2C2CCCCC2)nc1)c1cccc2nonc12
89.1 | 82.58 | 6.516 | CC(C)c1ccc(C2=CC(=O)C=CC2=O)cc1
80.4 | 81.13 | −0.7334 | CCc1cccc(NC(=O)/C=C/c2ccco2)c1
92.2 | 80.8 | 11.4 | Cc1cc(C)c2nc(N3CCCN(C(=O)c4ccco4)CC3)c(C#N)cc2c1
101.6 | 79.65 | 21.94 | O=C(OCc1ccc(F)cc1)c1cc(-c2ccco2)nc2ccccc12
75.97 | 78.01 | −2.047 | Cc1ccc(NC(=S)Nc2ccc3nc(-c4ccco4)c(-c4ccco4)nc3c2)cc1
90.07 | 76.69 | 13.37 | Oc1ccc2cc3c4cc(Br)ccc4nc-3oc2c1O
95.8 | 76.1 | 19.8 | O=C1/C(=C\C=C\c2ccco2)SC(=S)N1NCc1ccccc1O
97.17 | 75.38 | 21.79 | COC(=O)/C=C1/OC(c2ccc(Cl)cc2)=CC1=O
100.4 | 73.22 | 27.2 | [Na+].[Na+].[O-]c1c(Cl)cc(Cl)cc1Sc1cc(Cl)cc(Cl)c1[O-]
